Read-outs that look alike come from different tables or passages of the source. Ends that are not written are not given here. Peptide text beside a SMILES is read from it. * marks the point of attachment. Palmitoyl = CCCCCCCCCCCCCCCC(=O)*
Experiments:
human GIP receptor = biological target: T1, human GIP receptor (Homo sapiens, UniProt P48546); experiment: cAMP accumulation assay (HitHunter cAMP XS) in transiently transfected COS-7 cells expressing the human GIP receptor; format: cell-based; conditions: for Emax at 10 µM: COS-7, read-out: Emax (10 μM), GIP receptor; for fold (fold change of native GIP), GIP receptor: EC50 relative to native GIP
T1 construct: host or cells: COS-7 (transient, calcium phosphate; pCMV-Script vector)
T1 sequence (P48546 22-466): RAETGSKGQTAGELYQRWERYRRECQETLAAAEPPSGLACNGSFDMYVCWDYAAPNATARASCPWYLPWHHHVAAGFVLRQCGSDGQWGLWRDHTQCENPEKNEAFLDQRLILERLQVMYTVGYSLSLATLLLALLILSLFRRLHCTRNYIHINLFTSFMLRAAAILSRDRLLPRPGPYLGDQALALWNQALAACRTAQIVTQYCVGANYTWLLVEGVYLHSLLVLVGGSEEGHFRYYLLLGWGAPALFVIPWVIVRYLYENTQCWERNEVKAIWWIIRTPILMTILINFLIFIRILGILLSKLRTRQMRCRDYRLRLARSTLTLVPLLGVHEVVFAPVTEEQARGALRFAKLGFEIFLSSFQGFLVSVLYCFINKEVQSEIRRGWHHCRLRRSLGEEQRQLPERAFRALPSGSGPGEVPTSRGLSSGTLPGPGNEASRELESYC
Method: (§1) The day after, the cells were washed twice with Hepes buffered saline (HBS) buffer and incubated with HBS and 1 mM 3-isobutyl-1-methylxanthine (IBMX) for 30 min at 37° C. Ligands were added and incubated for 30 min at 37° C. The HitHunter™ cAMP XS assay (DiscoveRx) was carried out according to the manufacturer's instructions.

human GLP-2 receptor = biological target: T2, human GLP-2 receptor (Homo sapiens, UniProt O95838); experiment: cAMP accumulation assay (HitHunter cAMP XS) in transiently transfected COS-7 cells expressing the human GLP-2 receptor; format: cell-based; conditions: for Emax at 10 µM: COS-7, read-out: Emax (10 μM), GLP-2 receptor; for fold (fold change of native GLP-2), GLP-2 receptor: EC50 relative to native GLP-2; for EC50: cAMP, COS-7
T2 construct: host or cells: COS-7 (transient, calcium phosphate; pCMV-Script vector)
T2 sequence (O95838 1-553): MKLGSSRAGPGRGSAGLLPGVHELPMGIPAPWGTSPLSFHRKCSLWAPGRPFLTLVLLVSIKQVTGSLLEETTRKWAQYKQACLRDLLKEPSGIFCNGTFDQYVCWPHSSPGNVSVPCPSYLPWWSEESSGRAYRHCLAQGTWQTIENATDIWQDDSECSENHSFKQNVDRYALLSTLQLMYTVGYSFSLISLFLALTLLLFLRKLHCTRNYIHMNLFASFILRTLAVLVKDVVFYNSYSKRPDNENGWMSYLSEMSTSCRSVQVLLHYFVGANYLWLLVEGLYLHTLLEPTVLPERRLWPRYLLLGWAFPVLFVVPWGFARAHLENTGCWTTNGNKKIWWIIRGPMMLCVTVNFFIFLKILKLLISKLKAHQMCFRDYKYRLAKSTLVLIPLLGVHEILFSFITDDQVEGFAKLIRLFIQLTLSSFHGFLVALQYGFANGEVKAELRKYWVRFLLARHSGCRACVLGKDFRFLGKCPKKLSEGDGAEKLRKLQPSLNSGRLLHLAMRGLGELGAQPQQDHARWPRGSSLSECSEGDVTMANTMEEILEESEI
Method: as §1

[1] = logEC50, GLP-2 receptor, Table 2

Molecule	Emax at 10 µM (human GIP receptor)	fold (fold change of native GIP), GIP receptor (human GIP receptor; Table 2)	Emax at 10 µM (human GLP-2 receptor)	fold (fold change of native GLP-2), GLP-2 receptor (human GLP-2 receptor; Table 2)	EC50 (human GLP-2 receptor; [1])	fold (fold change of native GIP), GIP receptor (human GIP receptor; Table 1)	fold (fold change of native GLP-2), GLP-2 receptor (human GLP-2 receptor; Table 1)	other results
CCCCCCCCCCCC(=O)NCCCC[C@H](NC(=O)CNC(=O)[C@H](CCCCN)NC(=O)[C@@H](NC(=O)[C@H](CCC(N)=O)NC(=O)[C@@H](NC(=O)[C@H](CC(C)C)NC(=O)[C@H](Cc1c[nH]c2ccccc12)NC(=O)[C@H](CC(N)=O)NC(=O)[C@@H](NC(=O)[C@H](Cc1ccccc1)NC(=O)[C@H](CC(=O)O)NC(=O)[C@H](CCCNC(=N)N)NC(=O)[C@H](C)NC(=O)[C@H](C)NC(=O)[C@H](CC(C)C)NC(=O)[C@H](CC(N)=O)NC(=O)[C@H](CC(=O)O)NC(=O)[C@H](CC(C)C)NC(=O)[C@@H](NC(=O)[C@@H](NC(=O)[C@H](CO)NC(=O)[C@H](Cc1ccc(O)cc1)NC(=O)[C@H](CC(=O)O)NC(=O)[C@H](CO)NC(=O)[C@@H](NC(=O)[C@H](Cc1ccccc1)NC(=O)[C@@H](NC(=O)CNC(=O)[C@H](CC(=O)O)NC(=O)[C@H](C)NC(=O)[C@@H](N)Cc1c[nH]cn1)[C@@H](C)O)[C@@H](C)CC)[C@@H](C)O)[C@@H](C)CC)[C@@H](C)CC)[C@@H](C)CC)[C@@H](C)O)C(=O)N[C@@H](CCCCN)C(=O)O [Co-agonist 35]	99%	5.4 fold	68%	1.9 fold	2.34 nM			
HAEGTFISDYSTILDNLAARDFINWLIQTKITD [Co-agonist 1]						337 fold	82 fold	EC50 (human GIP receptor): 29.5 nM; Emax at 1 µM (human GIP receptor; COS-7, read-out: Emax, GIP receptor): 100%; Emax at 1 µM (human GLP-2 receptor; COS-7, read-out: Emax, GLP-2 receptor): 93%
CCCCCCCCCCCC(=O)NCCCC[C@H](NC(=O)[C@@H](NC(=O)[C@@H](NC(=O)[C@H](CCCCN)NC(=O)[C@@H](NC(=O)[C@H](CCC(N)=O)NC(=O)[C@@H](NC(=O)[C@H](CC(C)C)NC(=O)[C@H](Cc1c[nH]c2ccccc12)NC(=O)[C@H](CC(N)=O)NC(=O)[C@@H](NC(=O)[C@H](Cc1ccccc1)NC(=O)[C@H](CC(=O)O)NC(=O)[C@H](CCCNC(=N)N)NC(=O)[C@H](C)NC(=O)[C@H](C)NC(=O)[C@H](CC(C)C)NC(=O)[C@H](CC(N)=O)NC(=O)[C@H](CC(=O)O)NC(=O)[C@H](CC(C)C)NC(=O)[C@@H](NC(=O)[C@@H](NC(=O)[C@H](CO)NC(=O)[C@H](Cc1ccc(O)cc1)NC(=O)[C@H](CC(=O)O)NC(=O)[C@H](CO)NC(=O)[C@@H](NC(=O)[C@H](Cc1ccccc1)NC(=O)[C@@H](NC(=O)CNC(=O)[C@H](CC(=O)O)NC(=O)[C@H](C)NC(=O)[C@@H](N)Cc1c[nH]cn1)[C@@H](C)O)[C@@H](C)CC)[C@@H](C)O)[C@@H](C)CC)[C@@H](C)CC)[C@@H](C)CC)[C@@H](C)O)[C@@H](C)CC)[C@@H](C)O)C(=O)O [Co-agonist 32]	100%	1.7 fold	91%	5.1 fold				EC50 (human GIP receptor; logEC50, GIP receptor, Table 2, log value, cAMP, COS-7): 0.155 nM; EC50 (human GLP-2 receptor; EC50(nM), GLP-2 receptor, Table 2): 6.2 nM
CCCCCCCCCCCCCCCC(=O)NCCCC[C@H](NC(=O)[C@@H](NC(=O)[C@H](CCC(N)=O)NC(=O)[C@@H](NC(=O)[C@H](CC(C)C)NC(=O)[C@H](Cc1c[nH]c2ccccc12)NC(=O)[C@H](CC(N)=O)NC(=O)[C@@H](NC(=O)[C@H](Cc1ccccc1)NC(=O)[C@H](CC(=O)O)NC(=O)[C@H](CCCNC(=N)N)NC(=O)[C@H](C)NC(=O)[C@H](C)NC(=O)[C@H](CC(C)C)NC(=O)[C@H](CC(N)=O)NC(=O)[C@H](CC(=O)O)NC(=O)[C@H](CC(C)C)NC(=O)[C@@H](NC(=O)[C@@H](NC(=O)[C@H](CO)NC(=O)[C@H](Cc1ccc(O)cc1)NC(=O)[C@H](CC(=O)O)NC(=O)[C@H](CO)NC(=O)[C@H](CO)NC(=O)[C@H](Cc1ccccc1)NC(=O)[C@@H](NC(=O)CNC(=O)[C@H](CC(=O)O)NC(=O)[C@H](C)NC(=O)[C@@H](N)Cc1c[nH]cn1)[C@@H](C)O)[C@@H](C)O)[C@@H](C)CC)[C@@H](C)CC)[C@@H](C)CC)[C@@H](C)O)C(=O)N[C@H](C(=O)N[C@H](C(=O)N[C@@H](CC(=O)O)C(=O)O)[C@@H](C)O)[C@@H](C)CC [Co-agonist 23] (H-HADGTFSSDYSTILDNLAARDFINWLIQTK(Palmitoyl)ITD-OH; N-terminus and C-terminus assumed)	81%	8.5 fold	57%	1.2 fold	1.41 nM			
HADGTFISDYSTILDNLKARDFINWLIQTKITK [Co-agonist 27]	100%	6.2 fold	100%	0.47 fold				

Second part, led by results:

Emax at 10 µM (human GIP receptor)	fold (fold change of native GIP), GIP receptor (human GIP receptor; Table 2)	Emax at 10 µM (human GLP-2 receptor)	fold (fold change of native GLP-2), GLP-2 receptor (human GLP-2 receptor; Table 2)	EC50 (human GLP-2 receptor; [1])	fold (fold change of native GIP), GIP receptor (human GIP receptor; Table 1)	fold (fold change of native GLP-2), GLP-2 receptor (human GLP-2 receptor; Table 1)	Molecule	other results
92%	4.9 fold	92%	2.9 fold	3.47 nM			HADGTFISDYSTIKDNLAARDFINWLIQTKITK [Co-agonist 25]	
92%		104%			36 fold	5.6 fold	HADGTFISEYSTILDNLAARDFINWLIQTKITD [Co-agonist 15]	EC50 (human GIP receptor; logEC50, GIP receptor, Table 1, log value, cAMP, COS-7): 3.16 nM
89%		94%			7.4 fold	4.4 fold	CC[C@H](C)[C@H](NC(=O)[C@H](Cc1ccccc1)NC(=O)[C@H](CC(=O)O)NC(=O)[C@H](CCCNC(=N)N)NC(=O)[C@H](C)NC(=O)[C@H](C)NC(=O)[C@H](CC(C)C)NC(=O)[C@H](CC(N)=O)NC(=O)[C@H](CC(=O)O)NC(=O)[C@H](CC(C)C)NC(=O)[C@@H](NC(=O)[C@@H](NC(=O)[C@H](CO)NC(=O)[C@H](Cc1ccc(O)cc1)NC(=O)[C@H](CC(=O)O)NC(=O)[C@H](CO)NC(=O)[C@@H](NC(=O)[C@H](Cc1ccccc1)NC(=O)[C@@H](NC(=O)CNC(=O)[C@H](CC(=O)O)NC(=O)[C@H](C)NC(=O)[C@@H](N)Cc1c[nH]cn1)[C@@H](C)O)[C@@H](C)CC)[C@@H](C)O)[C@@H](C)CC)C(=O)N[C@@H](CC(N)=O)C(=O)N[C@@H](Cc1c[nH]c2ccccc12)C(=O)N[C@@H](CC(C)C)C(=O)N[C@H](C(=O)N[C@@H](CCC(N)=O)C(=O)N[C@H](C(=O)N[C@@H](CCCCN)C(=O)N[C@H](C(=O)N[C@H](C(=O)N[C@@H](CCCCN)C(=O)O)[C@@H](C)O)[C@@H](C)CC)[C@@H](C)O)[C@@H](C)CC [Co-agonist 18]	potency (and efficacy) on the GIP receptor compared with native GIP, in words (human GIP receptor; Table 1): almost the same potency and efficacy; potency and efficacy on the GLP-2R compared with native GLP-2, in words (human GLP-2 receptor; Table 1): almost the same potency and efficacy
